Here are results for one molecule from patent US10487054B2, “Therapeutic compounds” (REGENTS OF THE UNIVERSITY OF MINNESOTA, priority 2017, dated 2019).

Common to all, as to type: cell-based, human
The test system of one test is A431 cells. The test is described as follows: Crystal violet staining cell proliferation assay. As to conditions: dose-dependent, several days. The protocol:
(§1) Cells were exposed to EGF (10 ng/ml) and treated with increasing concentrations of compound 1. Representative photographs are shown and data are presented as mean values±S.D. from triplicate experiments. […] Cells were treated with different concentrations of compound 1 for several days and cell proliferation was determined by a crystal violet staining assay.
(§2) Cell proliferation was determined by a crystal violet staining assay. Cells (3×10^4/well) were seeded into 24-well plates. After an overnight incubation, cells were treated with different concentrations of compound 1 and incubated for several days. Then, each well was washed 3 times with phosphate buffered saline (PBS) and stained with 0.2% (w/v) crystal violet in 2% (v/v) ethanol. After 10 min, cells were washed 3 times with distilled water, and the remaining dye was dissolved in 0.5% (w/v) sodium dodecyl sulfate in 50% (v/v) ethanol. Absorbance was measured at an optical density of 540 nm using the Thermo Multiskan plate-reader (Thermo Fisher Scientific).

The next test deals with SCC12 cells. The test is described as follows: Crystal violet staining cell proliferation assay. Conditions: dose-dependent, several days. How it is done:
as §1, §2

For test [1], the system named is AP-1 activity in A431 cells. The test is described as follows: AP-1 luciferase reporter assay in control or TOPK knockdown cells. The protocol:
The cells were cultured, treated for 4 h with different concentrations of compound 1 and then exposed to SUV (60 kJ UVA/m^2 and 2.9 kJ UVB/m^2), followed by an additional 15-minute incubation. Cells were harvested and the levels of phosphorylated and total proteins were determined by Western blot analysis with specific antibodies as indicated. […] The cells were cultured and treated with different concentrations of compound 1 for 24 h. Cells were harvested and the levels of phosphorylated and total proteins were determined by Western blot analysis with specific antibodies as indicated. […] For the luciferase assay, JB6 P+ cells stably transfected with an AP-1 luciferase reporter plasmid were cultured. […] Luciferase activity was measured and AP-1 activity is expressed relative to control cells without SUV treatment. […] Luciferase and 3-galactosidase activities were measured using reagents included in the reporter assay system (right). […] Significant differences were evaluated using one-way ANOVA and the asterisks (*) indicate a significant effect (*, p<0.05; **, p<0.001; ***, p<0.0001). […]
Stable control or TOPK knockdown cells were co-transfected with 100 ng of the AP-1 luciferase reporter plasmid and 50 ng of an internal control […] plasmid. […] Luciferase and β-galactosidase activities were measured using the Luminoskan Ascent and Multiskan MCC (Labsystems), respectively. […]

Take `O=C1Nc2ccc(C34CC5CC(CC(C5)C3)C4)cc2C1=NO` [compound 1, 5-(adamantan-1-yl)-3-(hydroxyimino)indolin-2-one]: the cell proliferation result with A431 cells and with SCC12 cells was “strongly decreased” throughout. Besides, the AP-1 activity entry in test [1] (A431 TOPK knockdown group, highest concentration (5 μM)) is “only slightly affected”; in test [1] (A431 control group, 24 h), “inhibited by compound 1 in a dose-dependent manner”.
